According to patent publication US20140288044A1, “COMPOSITIONS AND THERAPEUTIC USES OF IKK-RELATED KINASE EPSILON AND TANKBINDING KINASE 1 INHIBITORS” (Alzheimer's Institute of America, Inc., priority 2011, published 2014):
Like-named read-outs stand apart in the source and are kept apart here.

Key:
[1] = target: T1, IKKε (Homo sapiens, UniProt Q14164); assay: In-vitro IKKε kinase assay (radiolabelled ATP, filterplate); assay type: biochemical
T1 construct: His-tag (in-house Sf9 preparation) or GST-tag (purchased Invitrogen preparation); these are alternatives, not both on one protein; host or cells: Sf9 cells
T1 sequence (Q14164 1-716): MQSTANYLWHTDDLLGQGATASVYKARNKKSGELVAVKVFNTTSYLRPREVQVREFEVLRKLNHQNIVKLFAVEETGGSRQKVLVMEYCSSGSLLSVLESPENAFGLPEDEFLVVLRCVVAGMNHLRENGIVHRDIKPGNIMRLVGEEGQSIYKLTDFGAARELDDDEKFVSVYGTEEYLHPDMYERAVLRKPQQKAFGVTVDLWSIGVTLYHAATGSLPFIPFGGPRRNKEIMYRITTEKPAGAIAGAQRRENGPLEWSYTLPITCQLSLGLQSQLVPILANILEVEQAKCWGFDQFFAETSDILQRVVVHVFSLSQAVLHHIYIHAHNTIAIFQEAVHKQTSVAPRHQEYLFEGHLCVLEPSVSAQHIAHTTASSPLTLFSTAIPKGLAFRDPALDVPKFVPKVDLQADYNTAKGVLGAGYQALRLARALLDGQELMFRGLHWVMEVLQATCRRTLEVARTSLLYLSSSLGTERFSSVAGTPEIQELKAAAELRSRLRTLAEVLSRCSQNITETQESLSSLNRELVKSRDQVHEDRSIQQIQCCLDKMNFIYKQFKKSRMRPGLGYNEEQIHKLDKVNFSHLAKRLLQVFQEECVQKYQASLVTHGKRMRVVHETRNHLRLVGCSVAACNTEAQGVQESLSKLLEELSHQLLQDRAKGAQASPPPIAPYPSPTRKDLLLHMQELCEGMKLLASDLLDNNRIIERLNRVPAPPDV
Summary of the method: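 His-tagged IKKε from Sf9 cells or GST-tagged IKKε, with myelin basic protein, casein or dephosphorylated casein as substrate and 32 μM ATP (2× Km) plus [γ^33]ATP. "Normal" assay used 0.1 μg/ml enzyme; "sensitized" used 0.015 μg/ml with dephosphorylated casein only. Stopped after 30–45 min with phosphoric acid; P-81 filter counts normalized to DMSO after background subtraction.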

[2] = test system: RANTES secretion by prostate cancer DU145 cells; assay: ELISA to detect secreted RANTES, prostate cancer DU145 cells; assay type: cell-based; details: Homo sapiens, DU-145
Method: Prostate cancer DU145 cells were seeded at 20,000 cells/well in a 96-well tissue culture plate. The following day media was removed and replaced with complete media containing IKKε/TBK1 inhibitor (starting concentration 25 μM, 1:3 dilutions, final DMSO 0.05%). Cells were incubated for 20 hours and culture supernatant used to determine secreted RANTES levels using a commercially available ELISA kit (R & D Systems, Minneapolis, Minn.).

[3] = test system: IKKε-mediated phosphorylation of IRF3; assay: ELISA for in-situ phosphorylation of IRF3 (phospho-Ser396) in HEK293T cells cotransfected with IRF3 and IKKε; assay type: cell-based; details: Homo sapiens, HEK-293T
Summary of the method: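 HEK293T cells cotransfected with IRF3 and IKKε were treated with compound for 20 h, and lysates were assayed by ELISA for phospho-Ser396 IRF3, normalized to DMSO. Viability was checked in parallel by CellTiter-Glo. For TBK1, cells cotransfected with IRF7 and TBK1 were treated overnight and probed by Western blot for phospho-Ser477/Ser479 IRF7.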

[4] = Table 3, in vitro, read-out: IKKε IC50
[5] = DU145 cells, 20 hours, read-out: IC50, inhibition of the secretion of RANTES
[6] = Table 3, DU145 cells in culture, read-out: RANTES Secretion IC50
[7] = 20 h, HEK293T cells, 20 hours, range given from about 1 μM to about 250 nM, read-out: IC50, in-situ IKKε-mediated phosphorylation of IRF3
[8] = Table 3, HEK293T cells in culture, read-out: pIRF3 ELISA IC50
[9] = "sensitized" assay, read-out: IC50, inhibition of the kinase activity of IKKε
[10] = in-vitro IKKε kinase inhibition assays, given as 0.005 μM (5 nM), read-out: IKKε kinase inhibitory activity (IC50 value)
[11] = 20 h, HEK293T cells, 20 hours, read-out: IC50, in-situ IKKε-mediated phosphorylation of IRF3

Structure (SMILES)	IC50 [1, 4] [µM]	IC50 [2, 5] [µM]	IC50 [2, 6] [µM]	IC50 [3, 7] [µM]	IC50 [3, 8] [µM]	IC50 [1, 9] [µM]	IC50 [1, 10] [µM]	IC50 [3, 11] [µM]
COCCOC1CN(Cc2ccc(Nc3nccc(-c4ccc(OC5CCOCC5)c(C#N)c4)n3)cn2)C1 [Example Compound 49, 5-{2-[(6-{[3-(2-Methoxyethoxy)azetidin-1-yl]methyl}pyridin-3-yl)amino]pyrimidin-4-yl}-2-(tetrahydro-2H-pyran-4-yloxy)benzonitrile]	0.00611	0.02 to 0.06	0.0558	0.25 to 1	0.363	–	–	–
CN(CCO)c1ccc(Nc2nccc(-c3ccc(OCC4CC4)c(C#N)c3)n2)cn1 [Example Compound 111, 2-(Cyclopropylmethoxy)-5-[2-({6-[(2-hydroxyethyl)(methyl)amino]pyridin-3-yl}amino)pyrimidin-4-yl]benzonitrile]	–	0.02 to 0.06	–	–	–	< 0.005	< 0.005	–
N#Cc1cc(-c2ccnc(Nc3cccnc3)n2)ccc1OC1CCOCC1 [Example Compound 11, 5-[2-(Pyridin-3-ylamino)pyrimidin-4-yl]-2-(tetrahydro-2H-pyran-4-yloxy)benzonitrile]	–	0.06 to 0.125	–	–	–	< 0.005	< 0.005	–
COC1CN(Cc2ccc(Nc3nccc(-c4ccc(NC(=O)C5CC5)c(C#N)c4)n3)cn2)C1 [Example Compound 146, N-{2-Cyano-4-[2-({6-[(3-methoxyazetidin-1-yl)methyl]pyridin-3-yl}amino)pyrimidin-4-yl]phenyl}cyclopropanecarboxamide]	–	0.06 to 0.125	–	–	–	–	–	–
COC1CN(Cc2ccc(Nc3nccc(-c4ccc(OC5CCOCC5)c(C#N)c4)n3)cn2)C1 [Example Compound 48, 5-[2-({6-[(3-Methoxyazetidin-1-yl)methyl]pyridin-3-yl}amino)pyrimidin-4-yl]-2-(tetrahydro-2H-pyran-4-yloxy)benzonitrile]	0.00274	0.02 to 0.06	0.0522	0.25 to 1	0.315	< 0.005	< 0.005	–
N#Cc1cc(-c2ccnc(Nc3cnc(N4CCOCC4)nc3)n2)ccc1OC1CCOCC1 [Example Compound 2, 5-(2-{[2-(Morpholin-4-yl)pyrimidin-5-yl]amino}pyrimidin-4-yl)-2-(tetrahydro-2H-pyran-4-yloxy)benzonitrile]	–	0.06 to 0.125	–	–	–	–	–	–
COCCOC1CN(C(=O)c2ccc(Nc3nccc(-c4ccc(OC5CCOCC5)c(C#N)c4)n3)cn2)C1 [Example Compound 28, 5-{2-[(6-{[3-(2-Methoxyethoxy)azetidin-1-yl]carbonyl}pyridin-3-yl)amino]pyrimidin-4-yl}-2-(tetrahydro-2H-pyran-4-yloxy)benzonitrile]	–	0.06 to 0.125	–	–	–	–	–	1 to 5
N#Cc1cc(-c2ccnc(Nc3ccc(N4CCOCC4)nc3)n2)ccc1NC(=O)C1CC1 [Example Compound 141, N-[2-Cyano-4-(2-{[6-(morpholin-4-yl)pyridin-3-yl]amino}pyrimidin-4-yl)phenyl]cyclopropanecarboxamide]	0.00191	0.02 to 0.06	0.021	–	0.0326	< 0.005	< 0.005	< 0.1
N#Cc1cc(-c2ccnc(Nc3ccc(CN4CCC4)nc3)n2)ccc1OC1CCOCC1 [Example Compound 47, 5-(2-{[6-(Azetidin-1-ylmethyl)pyridin-3-yl]amino}pyrimidin-4-yl)-2-(tetrahydro-2H-pyran-4-yloxy)benzonitrile]	0.00637	0.02 to 0.06	0.0395	0.25 to 1	0.265	–	–	–
